Numbers after ± are expanded uncertainties.
Tests used:
[1] = Molar enthalpy of transition or fusion; conditions: Crystal; Adiabatic calorimetry
[2] = Crystal; Adiabatic calorimetry

[2H]O[2H] [water-d2]
Molar enthalpy of transition or fusion [1]: 1.47 ± 0.0225 kcal/mol
Normal melting temperature [2]: 3.68 ± 0.05 °C

Source: the NIST ThermoML archive (doi:10.1016/j.jct.2005.09.005)
